Measurements: patent US20090305955A1, “Cyclopeptide with Anti-Cancer Activity Derived from Collagen Type IV” (priority 2006, published 2009)
Where a SMILES comes first, the peptide text is derived from it.

Experiments:
[1] = tested on: UACC-903 human melanoma cells; experiment: In vitro proliferation test (Wst-1 reagent); format: cell-based; conditions: 48 hours
Procedure: FIG. 9: In vitro proliferation test for human melanoma cells UACC-903 in the presence of the cyclopeptide YSNSG (SEQ ID NO: 3). The UACC-903 cells were incubated for 48 hours in 24-well plates, with a control medium (negative control, white bar), a linear heptapeptide CNYYSNS (SEQ ID NO: 5) (positive control, black bar) or concentrations of cyclopeptide YSNSG (SEQ ID NO: 3) varying from 5 μM to 20 μm (grey bars).
B16F1 cells, a metastasic sub-line of B16 murine melanoma pulmonary cells (d-Dr M Grégoire, INSERM U419, Nantes, France) were cultivated in RPMI 1640 medium, supplemented with 5% foetal calf serum (FCS) in 25 cm^2 flasks (Nunclon, VWR Int, Strasbourg, France) in a humid atmosphere containing 5% CO2. UACC-903 cells, a melanoma cell line (Dr J Trent, Phoenix, Ariz.) were cultivated in DMEM medium containing 4.5 g/l glucose, supplemented with 5% FCS in 25 cm^2 flasks (Nunclon) in a moist atmosphere containing 5% CO2. HMEC-1 cells (human microvascular entothelial cells; E W Ades, Center for Disease Control and Prevention, Atlanta, Ga.) and HUVEC cells (human umbilical vein endothelial cells) were cultivated in endothelial cell growth medium (ECGM) supplemented with ECGS/H at 0.4% (by weight), 2% (by volume) foetal calf serum, epidermal growth factor (EGF) 10 ng/ml, 1 μg/ml of hydrocortisone, 50 ng/ml of amphotericin B and 50 μg/ml of gentamicin.
Cell proliferation was determined using the reagent Wst-1 following the manufacturer's instructions. This reagent contains a tetrazolium salt which is reduced by mitochondrial oxido-reductases and allows the proliferation and viability of cells to be evaluated. Its reduction gives rise to a soluble formazan derivative which is yellow in colour. Before reaching confluence, the cells were washed twice with a saline solution buffered with phosphate (phosphate buffered saline; PBS) to remove SVF residues and incubated for 48 hours in DMEM medium, in the presence or absence of synthetic peptides at concentrations of 0 to 20 μM. The medium was recovered then centrifuged at 500 g for 10 min at 4° C. to remove cell debris. The protein contents of the medium obtained was determined using Bradford's method using SAB as the reference.

[2] = tested on: actin cytoskeleton; experiment: Labelling actin F (phalloidin), HUVEC cells; format: cell-based, human; conditions: 20 μM, 48 h
Procedure: (§1) FIG. 22: Effect of YSNSG (SEQ ID NO: 3) cyclopeptide on the organization of the cytoskeleton of HUVEC cells. The cells were cultivated on glass slides in the absence (control) or in the presence of 20 μM of YSNSG (SEQ ID NO: 3) cyclopeptide. After 48 h of incubation, the cells were fixed, permeabilized, incubated with phalloidin (A) or with an anti-Phospho-FAK antibody (B) then with Hoechst-33342. The slides were observed under a confocal microscope;
The cells were seeded onto sterile glass slides placed in a 24-well plate (2×10^4 cells/well) in a suitable medium containing 5% of serum, in the presence or absence of the cyclopeptide YSNSG (SEQ ID NO: 3). After 24 and 48 hours incubation, the cells were fixed with 3.7% formaldehyde for 10 minutes at ambient temperature and permeabilized for 3 minutes with an acetone solution at −20° C. Three 5 minute washes in PBS were carried out, then the cells were incubated for 30 minutes at ambient temperature in a saturation solution (PBS containing 1% bovine serum albumin). The cells were then incubated for 1 hour with phalloidin coupled with Alexa Fluor® 568 (diluted 1/40 in PBS containing 1% BSA) then washed 3 times for 5 minutes with PBS.

[3] = tested on: phospho-FAK; experiment: Phospho-FAK immunolabelling, HUVEC cells; format: cell-based, human; conditions: 20 μM, 48 h
Procedure: as §1
The cells were seeded onto sterile glass slides placed in 24-well plates (2×10^4 cells/well) in a suitable medium containing 5% serum in the presence or absence of YSNSG (SEQ ID NO: 3) cyclopeptide. After 24 and 48 hours incubation, the cells were fixed for 15 minutes in methanol. Three washes of 5 minutes in TBS-T were carried out, then the cells were incubated for 30 minutes at ambient temperature in a saturation solution (TBS-T containing 3% BSA). The cells were then incubated for 2 hours at ambient temperature in the presence of primary antibody diluted to 1/100 in TBS-T containing 3% BSA.

[4] = tested on: HUVEC cells; experiment: HUVEC cell proliferation; format: cell-based, human
[5] = tested on: HUVEC cells; experiment: Formation of capillary pseudotubes on Matrigel; format: cell-based, human; conditions: 20 μM
Procedure: The in vitro anti-angiogenic activity of the cyclopeptide YSNSG (SEQ ID NO: 3) was measured on the formation of capillary pseudotubes by endothelial HMEC-1 or HUVEC cells deposited on a Matrigel mat.
A solution of Matrigel (ECM gel: 10 mg/ml) was deposited in a sterile manner in 24-well plates (Nunclon) in an amount of 250 μl per well onto piled ice. Gel formation was obtained by incubating the plate at 37° C. for 30 min. HMEC-1 cells or HUVEC cells at sub-confluence were detached from their plastic culture support by adding trypsin/EDTA then taken up into suspension in the culture medium for endothelial cells and diluted to a concentration of 2×10^5 cells per ml. 100 μl volumes of this cell suspension were deposited on the gel surface. After incubating for 1 hour at 37° C. to allow cell adhesion, the various peptides were added in solution to 400 μl of the culture medium (final concentration 10 or 20 μM). Pseudotube formation was observed under the microscope and photographed, after incubating for 24 hours. Quantification was carried out using image analysis software.

[6] = tested on: MMP-14; experiment: Western blot of proMMP-14 / MMP-14, UACC-903 cells; format: cell-based, human; conditions: 20 μM
Procedure: FIG. 12: Effect of YSNSG (SEQ ID NO: 3) cyclopeptide on expression and activation of MMP-14. Expression of proMMP-14 (white bar) and MMP-14 (black bar) was studied by Western Blot (A) in a medium conditioned by UACC-903 cells in the absence of peptide (control), on cells treated with the linear heptapeptide CNYYSNS (SEQ ID NO: 5) (20 μm) or treated with the cyclopeptide YSNSG (SEQ ID NO: 3) at a concentration of 20 μM (cyclopeptide YSNSG (SEQ ID NO: 3)). The conditioned medium was recovered and analyzed as described in the methods. Quantification was carried out using Bio 1D software. (B);
The samples underwent 10% polyacrylamide gel electrophoresis in the presence of 0.1% SDS then were transferred onto Immobilon-P membranes (Millipore, St Quentin en Yvelines, France). The membranes were saturated with 5% freeze dried skimmed milk, Tween 20 0.1% in a 50 mM Tris-HCl, 150 mM NaCl buffer, pH 7.5 (TBS) for 2 hours at ambient temperature. The membranes were then incubated overnight at 4° C. with anti-MMP-14, anti-PAI-1 and anti-u-PAR antibodies then incubated for one hour at ambient temperature with a secondary antibody (anti-IgG) conjugated with peroxidase. The immune complexes were visualized with an ECL chemoluminescence detection kit.

Row | Compound | inhibited the proliferation of UACC-903 melanoma cells ([1]; 5 μM) | inhibited the proliferation of UACC-903 melanoma cells ([1]; 10 μM) | inhibited the proliferation of UACC-903 melanoma cells ([1]; 20 μM) | organization of the actin cytoskeleton [2] | expression of the phosphorylated form of focal adhesion kinase (phospho-FAK) [3] | cell proliferation of HUVEC cells [4] | inhibition of capillary pseudotube formation [5] | activation of proMMP-14 [6] | expression of proMMP-14 [6] | In vitro proliferation of UACC-903 human melanoma cells, change vs control ([1]; linear heptapeptide positive control, concentration not given)
1 | NC(=O)CC1NC(=O)C(CO)NC(=O)C(Cc2ccc(O)cc2)NC(=O)CNC(=O)C(CO)NC1=O (stereo not drawn) [cyclopeptide YSNSG, cyclopeptide YSNSG (SEQ ID NO: 3)] (cyclo(GYSNS); configuration not given here) | 27% | 29% | 40% | modification | reduction | did not modify | 45% | completely abolished | strongly inhibited | –
2 | CNYYSNS (Synthetic linear heptapeptide) [linear peptide NC1 [α3(IV) 185-191], the 7 N-terminal amino acids of the 185-203 domain; positive control, reference compound] | – | – | – | – | – | – | – | same intensity | same intensity | −45%
